Results from patent US20240199584A1, “KRAS INHIBITORS” (Bristol-Myers Squibb Company, priority 2022, published 2024).
pIC50: −log10 of the molar value. Where two headings read alike, the source gives them in different places.

How the values were obtained:
KRAS G12A = target: T1, KRAS G12A (Homo sapiens, UniProt P01116, G12A); assay: Cellular KRAS:RAF Disruption Assay (NanoBRET), KRAS G12A; assay type: cell-based; details: HEK293 T cells co-expressing RAF1 and KRAS G12A, 24 hours; read-out: RAS::RAF binding via NanoBRET IC50, KRAS G12A
T1 construct: expressed in transfected cells
T1 sequence (P01116 1-188 isoform P01116-2 G12A): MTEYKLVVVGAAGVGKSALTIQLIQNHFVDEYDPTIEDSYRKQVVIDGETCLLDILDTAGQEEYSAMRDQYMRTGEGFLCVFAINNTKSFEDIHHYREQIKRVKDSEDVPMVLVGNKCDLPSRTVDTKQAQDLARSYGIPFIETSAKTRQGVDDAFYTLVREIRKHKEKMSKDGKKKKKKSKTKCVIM
Method: (§1) Cellular KRAS:RAF Disruption Assay
(§2) Stable cell lines (HEK293 T) were generated to co-express RAF1 and mutant or wild type KRAS, as indicated, using the BiBRET vector (Promega). Engineered cell lines were suspended in media (OptiMEM, […]), plated in 384-well plates (8000 cells/well), and allowed to rest for 1.5 hours. Cells were treated with compounds for 24 hours, and NanoBRET NanoGlo substrate (Promega) was added per the manufacturer's instructions.

KRAS A146T = target: T2, KRAS A146T (Homo sapiens, UniProt P01116, A146T); assay: Cellular KRAS:RAF Disruption Assay (NanoBRET), KRAS A146T; assay type: cell-based; details: HEK293 T cells co-expressing RAF1 and KRAS A146T, 24 hours; read-out: RAS::RAF binding via NanoBRET IC50, KRAS A146T
T2 construct: expressed in transfected cells
T2 sequence (P01116 1-188 isoform P01116-2 A146T): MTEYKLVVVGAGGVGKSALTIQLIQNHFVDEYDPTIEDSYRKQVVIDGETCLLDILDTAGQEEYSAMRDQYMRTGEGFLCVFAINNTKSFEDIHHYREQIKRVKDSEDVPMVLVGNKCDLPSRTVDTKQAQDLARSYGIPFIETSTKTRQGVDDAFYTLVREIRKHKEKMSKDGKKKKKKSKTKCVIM
Method: as §1, §2

KRAS G13D = target: T3, KRAS G13D (Homo sapiens, UniProt P01116, G13D); assay: Cellular KRAS:RAF Disruption Assay (NanoBRET), KRAS G13D; assay type: cell-based; details: HEK293 T cells co-expressing RAF1 and KRAS G13D, 24 hours; read-out: RAS::RAF binding via NanoBRET IC50, KRAS G13D
T3 construct: expressed in transfected cells
T3 sequence (P01116 1-188 isoform P01116-2 G13D): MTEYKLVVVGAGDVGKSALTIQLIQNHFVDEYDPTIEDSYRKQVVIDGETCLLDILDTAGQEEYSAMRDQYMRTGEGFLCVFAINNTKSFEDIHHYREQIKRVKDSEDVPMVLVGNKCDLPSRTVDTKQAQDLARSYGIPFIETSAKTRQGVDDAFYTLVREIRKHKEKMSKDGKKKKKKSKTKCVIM
Method: as §1, §2

KRAS Q61H = target: T4, KRAS Q61H (Homo sapiens, UniProt P01116, Q61H); assay: Cellular KRAS:RAF Disruption Assay (NanoBRET), KRAS Q61H; assay type: cell-based; details: HEK293 T cells co-expressing RAF1 and KRAS Q61H, 24 hours; read-out: RAS::RAF binding via NanoBRET IC50, KRAS Q61H
T4 construct: expressed in transfected cells
T4 sequence (P01116 1-188 isoform P01116-2 Q61H): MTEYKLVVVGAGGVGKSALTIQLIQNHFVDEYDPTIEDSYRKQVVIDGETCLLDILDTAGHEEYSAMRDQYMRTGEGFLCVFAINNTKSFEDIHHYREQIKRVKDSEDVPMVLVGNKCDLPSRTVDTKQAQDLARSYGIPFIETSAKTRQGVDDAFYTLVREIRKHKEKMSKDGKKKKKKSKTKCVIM
Method: as §1, §2

KRAS G12V = target: T5, KRAS G12V (Homo sapiens, UniProt P01116, G12V); assay: Cellular KRAS:RAF Disruption Assay (NanoBRET), KRAS G12V; assay type: cell-based; details: HEK293 T cells co-expressing RAF1 and KRAS G12V, 24 hours; read-out: RAS::RAF binding via NanoBRET IC50, KRAS G12V
T5 construct: expressed in transfected cells
T5 sequence (P01116 1-188 isoform P01116-2 G12V): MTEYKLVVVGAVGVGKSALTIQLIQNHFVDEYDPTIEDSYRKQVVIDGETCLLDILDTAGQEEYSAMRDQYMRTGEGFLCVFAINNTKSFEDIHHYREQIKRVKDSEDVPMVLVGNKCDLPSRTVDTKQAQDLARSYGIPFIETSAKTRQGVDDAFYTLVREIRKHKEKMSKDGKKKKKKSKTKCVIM
Method: as §1, §2

KRAS Q61R = target: T6, KRAS Q61R (Homo sapiens, UniProt P01116, Q61R); assay: Cellular KRAS:RAF Disruption Assay (NanoBRET), KRAS Q61R; assay type: cell-based; details: HEK293 T cells co-expressing RAF1 and KRAS Q61R, 24 hours; read-out: RAS::RAF binding via NanoBRET IC50, KRAS Q61R
T6 construct: expressed in transfected cells
T6 sequence (P01116 1-188 isoform P01116-2 Q61R): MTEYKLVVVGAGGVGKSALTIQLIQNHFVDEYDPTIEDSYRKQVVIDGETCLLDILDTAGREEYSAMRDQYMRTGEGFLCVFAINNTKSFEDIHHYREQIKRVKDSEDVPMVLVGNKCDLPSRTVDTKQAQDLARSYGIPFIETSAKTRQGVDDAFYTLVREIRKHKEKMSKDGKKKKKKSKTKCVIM
Method: as §1, §2

KRAS G12S = target: T7, KRAS G12S (Homo sapiens, UniProt P01116, G12S); assay: Cellular KRAS:RAF Disruption Assay (NanoBRET), KRAS G12S; assay type: cell-based; details: HEK293 T cells co-expressing RAF1 and KRAS G12S, 24 hours; read-out: RAS::RAF binding via NanoBRET IC50, KRAS G12S
T7 construct: expressed in transfected cells
T7 sequence (P01116 1-188 isoform P01116-2 G12S): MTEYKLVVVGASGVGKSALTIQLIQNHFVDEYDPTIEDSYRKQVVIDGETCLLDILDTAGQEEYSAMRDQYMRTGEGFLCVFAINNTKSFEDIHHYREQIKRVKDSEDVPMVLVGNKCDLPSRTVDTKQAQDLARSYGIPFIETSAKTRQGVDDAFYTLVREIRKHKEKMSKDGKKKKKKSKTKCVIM
Method: as §1, §2

KRAS G12R = target: T8, KRAS G12R (Homo sapiens, UniProt P01116, G12R); assay: Cellular KRAS:RAF Disruption Assay (NanoBRET), KRAS G12R; assay type: cell-based; details: HEK293 T cells co-expressing RAF1 and KRAS G12R, 24 hours; read-out: RAS::RAF binding via NanoBRET IC50, KRAS G12R
T8 construct: expressed in transfected cells
T8 sequence (P01116 1-188 isoform P01116-2 G12R): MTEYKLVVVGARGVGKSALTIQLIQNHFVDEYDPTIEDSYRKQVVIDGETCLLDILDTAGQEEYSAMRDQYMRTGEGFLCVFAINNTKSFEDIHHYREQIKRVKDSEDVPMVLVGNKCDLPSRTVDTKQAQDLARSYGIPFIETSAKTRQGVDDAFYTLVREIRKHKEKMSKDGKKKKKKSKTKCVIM
Method: as §1, §2

KRAS G12C = target: T9, KRAS G12C (Homo sapiens, UniProt P01116, G12C); assay: Cellular KRAS:RAF Disruption Assay (NanoBRET), KRAS G12C; assay type: cell-based; details: HEK293 T cells co-expressing RAF1 and KRAS G12C, 24 hours; read-out: RAS::RAF binding via NanoBRET IC50, KRAS G12C
T9 construct: expressed in transfected cells
T9 sequence (P01116 1-188 isoform P01116-2 G12C): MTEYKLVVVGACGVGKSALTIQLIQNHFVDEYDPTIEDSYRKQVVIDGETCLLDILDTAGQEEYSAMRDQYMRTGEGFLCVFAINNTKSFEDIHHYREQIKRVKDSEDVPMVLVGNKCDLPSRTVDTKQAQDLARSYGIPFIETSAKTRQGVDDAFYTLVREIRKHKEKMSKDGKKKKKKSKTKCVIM
Method: as §1, §2

KRAS WT = target: T10, KRAS WT (Homo sapiens, UniProt P01116); assay: Cellular KRAS:RAF Disruption Assay (NanoBRET), KRAS WT; assay type: cell-based; details: HEK293 T cells co-expressing RAF1 and wild type KRAS, 24 hours; read-out: RAS::RAF binding via NanoBRET IC50, KRAS WT
T10 construct: expressed in transfected cells
T10 sequence (P01116 1-188 isoform P01116-2): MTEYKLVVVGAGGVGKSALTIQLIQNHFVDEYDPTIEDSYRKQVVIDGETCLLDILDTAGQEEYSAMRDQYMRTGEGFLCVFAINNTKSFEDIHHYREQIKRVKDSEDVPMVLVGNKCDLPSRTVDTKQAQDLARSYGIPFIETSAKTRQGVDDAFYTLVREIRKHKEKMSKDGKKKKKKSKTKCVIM
Method: as §1, §2

KRAS G12D [1] = target: T11, KRAS G12D (Homo sapiens, UniProt P01116, G12D); assay: biochemical
T11 sequence (P01116 1-188 isoform P01116-2 G12D): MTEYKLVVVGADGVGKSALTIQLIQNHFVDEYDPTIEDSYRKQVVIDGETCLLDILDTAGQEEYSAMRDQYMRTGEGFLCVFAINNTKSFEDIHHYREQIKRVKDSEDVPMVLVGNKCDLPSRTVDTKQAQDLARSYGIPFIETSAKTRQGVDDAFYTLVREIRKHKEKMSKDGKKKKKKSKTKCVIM
Method: Recombinant GST-RAF1 RBD (Ras binding domain) (9 nM) was added, followed by the addition of SA-Tb (0.25 nM), and the reaction mixture was incubated for 3 hours. HTRF (Homogeneous Time-Resolved Fluorescence) signal was measured (PerkinElmer Envision), the signal ratio (λem 520/λem 495) was calculated, and IC50 values were calculated from the dose-response curve.

KRAS G12D [2] = target: T11, KRAS G12D; assay: biochemical; remark: listed apart in the source
Method: BIODIPY-labeled GDP (BIODIPY: dipyrrometheneboron difluoride) (400 nM) and recombinant SOS (son of sevenless protein) (10 nM) were added, and the reaction was incubated for 30 minutes. HTRF signal was measured (PerkinElmer Envision), the signal ratio (λem 520/λem 495) was calculated, and IC50 values were calculated from the dose-response curve.

Structure (SMILES)	pIC50 (KRAS G12A)	pIC50 (KRAS A146T)	pIC50 (KRAS G13D)	pIC50 (KRAS Q61H)	pIC50 (KRAS G12V)	pIC50 (KRAS Q61R)	pIC50 (KRAS G12S)	pIC50 (KRAS G12R)	pIC50 (KRAS G12C)	pIC50 (KRAS WT)	pIC50 (KRAS G12D [1])	pIC50 (KRAS G12D [2])
C#Cc1c(F)ccc2cc(O)cc(-c3ncc4c(N5CCOCC5)nc(OC[C@@]56CCCN5C[C@H](F)C6)nc4c3F)c12 [Example 1-1, 4-(2-{[(2R,7aS)-2-fluoro-hexahydro-1H-pyrrolizin-7a-yl]methoxy}-8-fluoro-4-(morpholin-4-yl)pyrido[4,3-d]pyrimidin-7-yl)-5-ethynyl-6-fluoronaphthalen-2-ol]	7.80	7.12	7.35	7.00	6.70	< 5.00	7.54	5.28	7.60	8.22		
C#Cc1c(F)ccc2cc(O)cc(-c3ncc4c(N5CCCOCC5)nc(OC[C@]56CCC[C@H]5N(C)CCC6)nc4c3F)c12 [Example 1-3, 4-(2-{[(4aS,7aR)-1-methyl-octahydro-1H-cyclopenta[b]pyridin-4a-yl]methoxy}-8-fluoro-4-(1,4-oxazepan-4-yl)pyrido[4,3-d]pyrimidin-7-yl)-5-ethynyl-6-fluoronaphthalen-2-ol]	8.70	7.80	8.30	8.15	7.72	5.84	8.40	6.88	8.52	8.70	> 8.70	> 8.70
C#Cc1c(F)ccc2cc(O)cc(-c3ncc4c(N5C6COCC5C6)nc(OC[C@@]56CCCN5C[C@H](F)C6)nc4c3F)c12 [Example 1-35, 4-(2-{[(2R,7aS)-2-fluoro-hexahydro-1H-pyrrolizin-7a-yl]methoxy}-8-fluoro-4-{3-oxa-6-azabicyclo[3.1.1]heptan-6-yl}pyrido[4,3-d]pyrimidin-7-yl)-5-ethynyl-6-fluoronaphthalen-2-ol]	8.00	7.40	7.66	7.51	7.49	< 5.00	7.96	5.37	7.92	7.89		
C#Cc1c(F)ccc2cc(O)cc(-c3ncc4c(N5CC6COC(C6)C5)nc(OC[C@@]56CCCN5C[C@H](F)C6)nc4c3F)c12 (stereo partly drawn) [Example 1-90, 4-(2-{[(2R,7aS)-2-fluoro-hexahydro-1H-pyrrolizin-7a-yl]methoxy}-8-fluoro-4-{6-oxa-3-azabicyclo [3.2.1]octan-3-yl}pyrido[4,3-d]pyrimidin-7-yl)-5-ethynyl-6-fluoronaphthalen-2-ol]	7.71				6.71				7.38	7.92		
C#Cc1c(F)ccc2cc(O)cc(-c3ncc4c(N5CCOC6CC65)nc(OC[C@@]56CCCN5C[C@H](F)C6)nc4c3F)c12 (stereo partly drawn) [Example 1-100, 4-(2-{[(2R,7aS)-2-fluoro-hexahydro-1H-pyrrolizin-7a-yl]methoxy}-8-fluoro-4-{2-oxa-5-azabicyclo[4.1.0]heptan-5-yl}pyrido[4,3-d]pyrimidin-7-yl)-5-ethynyl-6-fluoronaphthalen-2-ol]	8.34				6.93				7.89	7.91		
C#Cc1c(F)ccc2cc(O)cc(-c3ncc4c(N5CCOCC(F)(F)C5)nc(OC[C@]56CCC[C@H]5N(C)CCC6)nc4c3F)c12 [Example 1-107, 4-(2-{[(4aS,7aR)-1-methyl-octahydro-1H-cyclopenta[b]pyridin-4a-yl]methoxy}-4-(6,6-difluoro-1,4-oxazepan-4-yl)-8-fluoropyrido[4,3-d]pyrimidin-7-yl)-5-ethynyl-6-fluoronaphthalen-2-ol]	8.28				6.88				8.01	8.01		
C#Cc1c(F)ccc2cc(O)cc(-c3ncc4c(N5CCOCC(C)(O)C5)nc(OC[C@]56CCC[C@H]5N(C)CCC6)nc4c3F)c12 (stereo partly drawn) [Example 1-108, 4-(2-{[(4aS,7aR)-1-methyl-octahydro-1H-cyclopenta[b]pyridin-4a-yl]methoxy}-7-(8-ethynyl-7-fluoro-3-hydroxynaphthalen-1-yl)-8-fluoropyrido[4,3-d]pyrimidin-4-yl)-6-methyl-1,4-oxazepan-6-ol]	7.88				6.85				7.73	7.76		
C#Cc1c(F)ccc2cc(O)cc(-c3ccc4c(N5CCCOCC5)nc(OC[C@@]56CCCN5C[C@H](F)C6)nc4c3F)c12 [Example 2-2, 4-(2-{[(2R,7aS)-2-fluoro-hexahydro-1H-pyrrolizin-7a-yl]methoxy}-8-fluoro-4-(1,4-oxazepan-4-yl)quinazolin-7-yl)-5-ethynyl-6-fluoronaphthalen-2-ol]	8.52	7.77	8.10	7.80	7.59	5.64	8.22	6.69	8.30	8.70		
C#Cc1c(F)ccc2cc(O)cc(-c3ccc4c(N5CCCOCC5)nc(OC[C@]56CCC[C@H]5N(C)CCC6)nc4c3F)c12 [Example 2-3, 4-(2-{[(4aS,7aR)-1-methyl-octahydro-1H-cyclopenta[b]pyridin-4a-yl]methoxy}-8-fluoro-4-(1,4-oxazepan-4-yl)quinazolin-7-yl)-5-ethynyl-6-fluoronaphthalen-2-ol]	7.74	7.09	7.31	7.14	6.76	< 5.30	7.41	5.97	7.62	7.96		
C#Cc1c(F)ccc2cc(O)cc(-c3ccc4c(N5CCCC(C)(O)C5)nc(OC[C@]56CCC[C@H]5N(C)CCC6)nc4c3F)c12 (stereo partly drawn) [Example 2-72, 1-(2-{[(4aS,7aR)-1-methyl-octahydro-1H-cyclopenta[b]pyridin-4a-yl]methoxy}-7-(8-ethynyl-7-fluoro-3-hydroxynaphthalen-1-yl)-8-fluoroquinazolin-4-yl)-3-methylpiperidin-3-ol]	8.05				7.39				7.89	8.44		
C#Cc1c(F)ccc2cc(O)cc(-c3ccc4c(N5C[C@@H]6C[C@H]5C(=O)N6)nc(OC[C@]56CCC[C@H]5N(C)CCC6)nc4c3F)c12 [Example 5-1, (1S,4S)-5-(2-{[(4aS,7aR)-1-methyl-octahydro-1H-cyclopenta[b]pyridin-4a-yl]methoxy}-7-(8-ethynyl-7-fluoro-3-hydroxynaphthalen-1-yl)-8-fluoroquinazolin-4-yl)-2,5-diazabicyclo[2.2.1]heptan-3-one]	6.06				5.60				6.08	6.62		
C#Cc1c(F)ccc2cc(O)cc(-c3ccc4c(N5CC6CCC(C5)N6C(=O)C(F)(F)F)nc(OC[C@@]56CCCN5C[C@H](F)C6)nc4c3F)c12 [Example 7-3, 1-[3-(2-{[(2R,7aS)-2-fluoro-hexahydro-1H-pyrrolizin-7a-yl]methoxy}-7-(8-ethynyl-7-fluoro-3-hydroxynaphthalen-1-yl)-8-fluoroquinazolin-4-yl)-3,8-diazabicyclo[3.2.1]octan-8-yl]-2,2,2-trifluoroethan-1-one]	6.84	6.50	6.70	6.32	6.17	< 5.00	6.50	5.12	6.44	7.40		
